# Test results from patent US20210322508A1, “PEPTIDES AND COMPOSITIONS FOR TARGETED TREATMENT AND IMAGING” (SIGNABLOK, INC., priority 2018, published 2021).
# Tests used:
# [1] = tolerability in healthy mice (body weight); format: in vivo; details: healthy C57BL/6 mice, average weights
# Method: As described herein, healthy C57BL/6 mice were intraperitoneally (i.p.) administered daily for 7 consecutive days with GF9 at indicated doses Mouse body weight (BW) was measured daily.
# [2] = Mouse tolerability studies; format: in vivo; details: female, C57BL/6, mouse, in vivo, ip, 400 mg/kg; free form, healthy mice
# Method: Naïve, female C57BL/6 mice at 8 to 10 weeks of age (18 to 21 g) from the Jackson Laboratory were used. […] Clinical observations and body weights were made twice daily.
# Naïve, female C57BL/6 mice at 8 to 10 weeks of age (18 to 21 g) from the Jackson Laboratory were used. Animals were randomly grouped (5 mice per group) and i.p. injected with 400 mg/kg G-HV21, G-KV21 or G-TE21. Clinical observations and body weights were made twice daily.
# [3] = system: LPS-stimulated J774A.1 macrophages (TNF-alpha, IL-6, IL-1beta); test: In vitro cytokine release by LPS-stimulated macrophages; format: cell-based, mouse; details: 10 ng/ml after pre-incubation with HDL; LPS 1 μg/ml, 24 h
# Method: (§1) The BALB/c murine macrophage cell line J774A.1 (ATCC TIB-67) were obtained from the American Type Culture Collection (ATCC, Manassas, Va.). Macrophages were cultured in 48-well plates (Corning, Cambridge, Mass.) for 24 h at 37° C. in the presence of LPS (1 μg/ml, Escherichia coli 055:B5, Sigma) in combination with 10 ng/ml peptides either pre-incubated or not with HDL. Cell-free supernatants were harvested and stored at −20° C. for later cytokine quantification. TNF-alpha, IL-6, and IL-1beta were assayed using commercial ELISA kits (Pierce Biotechnology, Thermo Scientific, Rockford, Ill.) according to the recommendations of the manufacturer. Results were represented as the mean±S.D. of three independent experiments. Statistical significances in in vitro macrophage uptake assay were determined by two-tailed Student's t test.
# as §1, with “Macrophages were cultured in 48-well plates (Corning, Cambridge, Mass.) for 24 h at 37° C. in the presence of LPS (1 μg/ml, Escherichia coli 055:B5, Sigma) in combination with 10 ng/ml peptides either pre-incubated or not with HDL.” left out
# J774A.1 macrophages = test: In vitro macrophage endocytosis of fluorescent peptides with or without HDL; format: cell-based, mouse; details: in the presence or absence of HDL
# Method: The BALB/c murine macrophage cell line J774A.1 (ATCC TIB-67) were obtained from the American Type Culture Collection (ATCC, Manassas, Va.). The macrophage cells were cultured at 37° C. with 5% CO2 in Dulbecco's modified Eagle's medium (DMEM) (Cellgro, Mediatech Inc, Manassas, Va.) with 2 mM glutamine, 100 U/ml penicillin, 0.1 mg/ml streptomycin, and 10% fetal bovine serum (FBS) (Cellgro, Mediatech Inc, Manassas, Va.) and grown to approximately 90% of confluence in 6-well tissue culture plates (Corning, Tewksbury, Mass.). Cells were incubated for varied time periods from 4 to 24 h at 37° C. with fluorescently labeled peptides (pre-incubated with 1 mg/ml HDL) at a concentration of 4 μM rhodamine B (rho-B). After incubation, cells were washed twice with PBS and lysed using Promega passive lysis buffer (Promega, Madison, Wis.). The rho B fluorescence was measured in the lysates with a 540 nm excitation and a 590 nm emission filters using the Gemini EM fluorescence microplate reader (Molecular Devices, Sunnyvale, Calif.). The protein concentration in the lysates was determined using the Bradford reagent (Bio-Rad, Richmond, Calif.) and the SpectraMax 190 microplate reader (Molecular Devices, Sunnyvale, Calif.).
# In one embodiment, after reaching target confluency, cells were incubated for 1 h in medium with or without fucoidan (400 μg/mL), BLT-1 (10 μM) or cytochalasin D (40 μM), Cells were subsequently incubated for 4 h and 22 h at 37° C. in medium containing 2 μM of rho B-labeled peptides G-KV21 and G-HV21 (as calculated for rho B) that were pre-incubated with 1 mg/ml HDL. After incubation, cells were washed twice with PBS and lysed using Promega passive lysis buffer. The rho B fluorescence and protein concentration were measured in the lysates as described above.
# [4] = in vivo; cited from earlier work
Compound,toxicity in healthy mice [1],MTD [2],production of cytokines by LPS-stimulated macrophages [3],"macrophage endocytosis, effect of sulfoxidized methionine residue (J774A.1 macrophages)",behaviour on ultracentrifugation of whole mouse serum (mouse lipoproteins),safety in humans [4]
"CC(C)C[C@H](NC(=O)[C@H](Cc1ccccc1)NC(=O)CN)C(=O)N[C@@H](CO)C(=O)N[C@@H](CCCCN)C(=O)N[C@@H](CO)C(=O)N[C@@H](CC(C)C)C(=O)N[C@H](C(=O)N[C@@H](Cc1ccccc1)C(=O)N[C@H](C(=O)N[C@@H](CCCCN)C(=O)N1CCC[C@H]1C(=O)N[C@@H](CCC(=O)O)C(=O)N[C@@H](CO)C(=O)N[C@@H](CCC(=O)O)C(=O)N[C@@H](CCCNC(=N)N)C(=O)N[C@@H](CC[S+](C)[O-])C(=O)N1CCC[C@H]1C(=O)N[C@@H](CS)C(=O)N[C@H](C(=O)N[C@@H](CCC(=O)O)C(=O)O)[C@@H](C)O)[C@@H](C)O)C(C)C (stereo partly drawn) [G-TE21, reference compound]",No toxicity was observed,≥ 400 mg/kg,does not affect on cytokine release by LPS-stimulated macrophages,does not promote macrophage endocytosis neither in the presence or absence of HDL,sedimentate with serum proteins,–
LQEEDAGEYGCM [LR12],–,–,–,–,–,safe
